From patent US20040086901A1, “Database for analyzing gene function and method of analyzing gene function by dspa” (priority 2000, published 2004)

Columns and labels:
Format in all cases: cell-based, mouse
[1] = system: NIH3T3 cells overexpressing Regucalcin; experiment: MTT cell viability, Regucalcin overexpressing cells vs parental line; conditions: Regucalcin high-expressing cells / parental cell line, 3 to 4 days
How it was run: (§1)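 Stable NIH3T3 transfectants (cDNA in pRc-CMV-type vector, G-418-selected, high expressers picked by Western blot) and parental cells were seeded at 1×10^5 cells/ml into twofold serial drug dilutions and grown 3–4 days. MTT formazan was read at 574/655 nm, and log ratios of IC40 values were derived.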

[2] = system: NIH3T3 cells overexpressing HNF3b; experiment: MTT cell viability, HNF3b overexpressing cells vs parental line; conditions: HNF3b high-expressing cells / parental cell line, 3 to 4 days
How it was run: (§2)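 NIH3T3 high expressers vs parental; 2-fold serial dilution of drugs (DMSO stocks), 9 points; 10% CS-DMEM; 3–4 d culture; MTT 4 h 37 °C, stop with 0.04N HCl/isopropanol; A574/655. Readout is log(IC40 ratio).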

[3] = system: NIH3T3 cells overexpressing caspase-2; experiment: MTT cell viability, caspase-2 overexpressing cells vs parental line; conditions: caspase-2 high-expressing cells / parental cell line, 3 to 4 days
How it was run: as §1

[4] = system: NIH3T3 cells overexpressing HNF1; experiment: MTT cell viability, HNF1 overexpressing cells vs parental line; conditions: HNF1 high-expressing cells / parental cell line, 3 to 4 days
How it was run: as §2

[5] = system: NIH3T3 cells overexpressing CaMKIIa; experiment: MTT cell viability, CaMKIIa overexpressing cells vs parental line; conditions: CaMKIIa high-expressing cells / parental cell line, 3 to 4 days
How it was run: as §2

[6] = system: NIH3T3 cells overexpressing caspase-3; experiment: MTT cell viability, caspase-3 overexpressing cells vs parental line; conditions: caspase-3 high-expressing cells / parental cell line, 3 to 4 days
How it was run: as §2

[7] = system: NIH3T3 cells overexpressing DAN; experiment: MTT cell viability, DAN overexpressing cells vs parental line; conditions: DAN high-expressing cells / parental cell line, 3 to 4 days
How it was run: as §1

[8] = system: NIH3T3 cells overexpressing CP-antisense; experiment: MTT cell viability, CP-antisense cells vs parental line; conditions: 3 to 4 days
How it was run: as §1

[9] = system: NIH3T3 cells overexpressing erbB2; experiment: MTT cell viability, erbB2 overexpressing cells vs parental line; conditions: erbB2 high-expressing cells / parental cell line, 3 to 4 days
How it was run: as §1

[10] = system: NIH3T3 cells overexpressing p38-DN; experiment: MTT cell viability, p38-DN overexpressing cells vs parental line; conditions: p38-DN high-expressing cells / parental cell line, 3 to 4 days
How it was run: as §2

[11] = system: NIH3T3 cells overexpressing caspase-1; experiment: MTT cell viability, caspase-1 overexpressing cells vs parental line; conditions: caspase-1 high-expressing cells / parental cell line, 3 to 4 days
How it was run: as §2

[12] = system: NIH3T3 cells overexpressing coup; experiment: MTT cell viability, coup overexpressing cells vs parental line; conditions: coup high-expressing cells / parental cell line, 3 to 4 days
How it was run: as §1

[13] = system: NIH3T3 cells overexpressing RhoA; experiment: MTT cell viability, RhoA overexpressing cells vs parental line; conditions: RhoA high-expressing cells / parental cell line, 3 to 4 days
How it was run: as §1

[14] = system: NIH3T3 cells overexpressing TK; experiment: MTT cell viability, TK overexpressing cells vs parental line; conditions: TK high-expressing cells / parental cell line, 3 to 4 days
How it was run: as §1

[15] = system: NIH3T3 cells overexpressing cystatin alpha; experiment: MTT cell viability, cystatin alpha overexpressing cells vs parental line; conditions: cystatin alpha high-expressing cells / parental cell line, 3 to 4 days
How it was run: as §1

[16] = system: NIH3T3 cells overexpressing Ha-ras; experiment: MTT cell viability, drug sensitivity of Ha-ras overexpressing cells vs parental line; conditions: Ha-ras high-expressing cells / parental cell line, 3 to 4 days
How it was run: as §2

[17] = system: NIH3T3 cells overexpressing PKCalpha-KN; experiment: MTT cell viability, PKCalpha-KN overexpressing cells vs parental line; conditions: 3 to 4 days
How it was run: as §2

[18] = system: NIH3T3 cells overexpressing p33/ING1; experiment: MTT cell viability, p33/ING1 overexpressing cells vs parental line; conditions: p33/ING1 high-expressing cells / parental cell line, 3 to 4 days
How it was run: as §1

[19] = system: NIH3T3 cells overexpressing v-src; experiment: MTT cell viability, v-src overexpressing cells vs parental line; conditions: v-src high-expressing cells / parental cell line, 3 to 4 days
How it was run: as §1

[20] = system: NIH3T3 cells overexpressing cystatin E; experiment: MTT cell viability, cystatin E overexpressing cells vs parental line; conditions: cystatin E high-expressing cells / parental cell line, 3 to 4 days
How it was run: as §1

[21] = PKCalpha-KN (first of two lines) high-expressing cells / parental cell line
[22] = PKCalpha-KN (second of two lines) high-expressing cells / parental cell line

| Compound | logarithmic value of ratio of IC40 values [1] | logarithmic value of ratio of IC40 values [2] | logarithmic value of ratio of IC40 values [3] | logarithmic value of ratio of IC40 values [4] | logarithmic value of ratio of IC40 values [5] | logarithmic value of ratio of IC40 values [6] | logarithmic value of ratio of IC40 values [7] | logarithmic value of ratio of IC40 values [8] | logarithmic value of ratio of IC40 values [9] | logarithmic value of ratio of IC40 values [10] | logarithmic value of ratio of IC40 values [11] | logarithmic value of ratio of IC40 values [12] | logarithmic value of ratio of IC40 values [13] | logarithmic value of ratio of IC40 values [14] | logarithmic value of ratio of IC40 values [15] | logarithmic value of ratio of IC40 values [16] | logarithmic value of ratio of IC40 values [17, 21] | logarithmic value of ratio of IC40 values [17, 22] | logarithmic value of ratio of IC40 values [18] | logarithmic value of ratio of IC40 values [19] | also measured |
| --- | --- | --- | --- | --- | --- | --- | --- | --- | --- | --- | --- | --- | --- | --- | --- | --- | --- | --- | --- | --- | --- |
| CN(C)CCCn1cc(C2=C(c3c[nH]c4ccccc34)C(=O)NC2=O)c2ccccc21 [GF109203X] | −0.05 | 0.21 | 0.92 | 0.345 | 0.04 | 0.82 | 0.65 | 0.00 | −0.40 | 0.58 | 0.23 | 0.46 | 0.24 | 0.00 | 0.60 | −0.39 | 0.22 | 0.62 | −0.28 | −0.29 | logarithmic value of ratio of IC40 values [20]: 0.27 |
| C=C1[C@@H](O)[C@@H]2O[C@]3(CC[C@H](/C=C/[C@@H](C)[C@@H]4CC(C)=C[C@@]5(O[C@H](C[C@@](C)(O)C(=O)O)CC[C@H]5O)O4)O3)CC[C@H]2O[C@@H]1[C@@H](O)C[C@H](C)[C@H]1O[C@@]2(CCCCO2)CC[C@H]1C [OA, okadaic acid] | −0.10 | 0.08 | 0.06 | 0 | 0.00 | 0.00 | 0.04 | 0.13 | −0.19 | 0.12 | 0.00 | 0.00 | 0.00 | 0.00 | 0.08 | 0.11 | 0.09 | 0.00 | 0.11 | 0.18 | logarithmic value of ratio of IC40 values [20]: −0.52 |
| sodium vanadate | 0.00 | 0.22 | 0.40 | 0.046 | −0.13 | 0.14 | 0.30 | 0.04 | −0.40 | −0.04 | −0.11 | −0.10 | 0.28 | 0.16 | 0.08 | −0.33 | 0.23 | 0.08 | −0.30 | 0.00 | logarithmic value of ratio of IC40 values [20]: 0.20 |
| CCCC[C@@H](C)/C=C(C)/C=C(\C)C(=O)NC1=C[C@@](O)(/C=C/C=C/C=C/C(=O)NC2=C(O)CCC2=O)[C@@H]2O[C@@H]2C1=O [Manumycin, manumycin] | 0.04 | −0.06 | 0.08 | 0.06 | 0.00 | 0.04 | 0.00 | 0.00 | −0.05 | 0.00 | −0.06 | 0.09 | −0.04 | 0.00 | −0.19 | −0.30 | 0.00 | 0.16 | 0.18 | 0.00 | logarithmic value of ratio of IC40 values [20]: 0.00 |
| COC[C@H]1OC(=O)c2coc3c2[C@@]1(C)C1=C(C3=O)[C@@H]2CCC(=O)[C@@]2(C)C[C@H]1OC(C)=O [Wortmannin, wortmannin] | −0.28 | 0.24 | 0.52 | 0.16 | −0.15 | 0.45 | 0.52 | −0.12 | 0.16 | −0.18 | 0.20 | 0.10 | 0.24 | 0.00 | 0.45 | 0.34 | 0.41 | −0.06 | 0.00 | 0.08 | logarithmic value of ratio of IC40 values [20]: 0.00 |
| C[C@@H]1O[C@@H](O[C@H]2C[C@@H](O)[C@]3(CO)[C@H]4[C@H](O)C[C@]5(C)[C@@H](C6=CC(=O)OC6)CC[C@]5(O)[C@@H]4CC[C@]3(O)C2)[C@H](O)[C@H](O)[C@H]1O [Ouabain, ouabain] | −0.12 | −0.23 | −0.05 | 0.103 | 0.23 | 0.65 | 0.74 | 0.28 | 0.18 | 0.41 | 1.26 | 0.49 | 0.15 | 0.00 | 1.28 | 0.32 | 0.00 | 0.06 | 0.10 | 0.00 | logarithmic value of ratio of IC40 values [20]: 0.49 |
